Source: US5747065A, “Monoglyceride/lactate ester permeation enhancer for oxybutynin” (priority 1996, dated 1998)
Where two headings read alike, the source gives them in different places.

Legend:
[1] = assay type: in vivo, human; conditions: transdermal, coadministered with the permeation enhancing mixture
Procedure: Representative skin permeation rates of oxybutynin through living human skin are in the range of about 5 μg/cm^2 ·hr to about 15 μg/cm^2 ·hr. Therapeutic blood levels can be achieved within approximately 6-10 hours after the initial application, and blood concentrations are maintained with subsequent system applications. The range of desired and achievable system permeation rates of oxybutynin, arriving through the skin from a limited area, is 1-20 mg over a period of 24 hours. The system application is easily adapted for shorter or longer duration treatments, but generally 72 hours is the duration for a single application.

[2] = 25 mg/mL aqueous oxybutynin, 20 μm polybutadiene film, 0.05M isotonic phosphate buffer, cited from earlier work
[3] = compared with racemate; devices/gels of Table 4
Procedure: The drug/permeation enhancer reservoir was prepared by mixing, depending on the formulation, either ethylene vinyl acetate copolymer having a vinyl acetate content of 40 percent ("EVA 40", U.S.I. Chemicals, Illinois) or mineral oil and petrolatum in an internal mixer (Bra Bender type mixer) until the EVA 40 pellets fused. Oxybutynin, glycerol monolaurate and lauryl lactate were then added.
When EVA 40 was used the mixture was blended, cooled and calendered to a 5 mil thick film. This film was then laminated to an acrylic contact adhesive (MSP041991P, 3M) on one side and Medpar® backing (3M) on the opposite side. The laminate was then cut into 2.54 cm^2 circles using a stainless steel punch. Circular pieces of human-epidermis were mounted on horizontal permeation cells with the stratum corneum facing the donor compartment of the cell. The release liner of the system was then removed and the system was centered over the stratum corneum side of the epidermis. A known volume of the receptor solution (0.05M sodium phosphate buffer at pH 6) that had been equilibrated at 35° C. was placed in the receptor compartment. Air bubbles were removed; the cell was capped and placed in a water bath-shaker at 35° C.
When the mineral oil/petrolatum was used, the mixture, containing the drug and permeation enhancers, was blended/mixed and then poured into the donor side of a two-side diffusion cell. […]

[4] = Solubility of glycerol monolaurate in lauryl lactate / EVA 40; assay type: physicochemical; conditions: for Wt % GML in solution (free GML): based on GML solubility of 350 mg/g
Excerpt: The unexpected effects of the specific weight percentages of the components of the permeation enhancer mixture are believed to be due, in part, to the solubility of the monoglyceride in the lactic acid ester. It is known that monoglycerides by themselves are effective permeation enhancers. The enhancement occurs by the solubilization of the monoglyceride in the lipid layer of the skin. The solubilization of the monoglyceride in the lipid layer increases as a function of lactic acid ester concentration. […] Thus, the amount of GML dissolved, ie, free GML, is dictated by and proportional to the lauryl lactate loading in the polymer.

## CCN(CC)CC#CCOC(=O)C(O)(c1ccccc1)C1CCCCC1 (centres unmarked) [oxybutynin]
[1]
  time to therapeutic blood levels after the initial application: 6 to 10 h
[2]; per area
  in vitro release rate: ~10 μg/cm^2 ·hr
[2]; through 49 cm^2 area
  in vitro release rate: approximately 12 mg over 24 hours

## CCN(CC)CC#CCOC(=O)[C@@](O)(c1ccccc1)C1CCCCC1 [S-oxybutynin]
[3]
  flux of R- or S-oxybutynin relative to the racemate: approximately equivalent to that of the racemate

## CCN(CC)CC#CCOC(=O)[C@](O)(c1ccccc1)C1CCCCC1 [R-oxybutynin]
[3]
  flux of R- or S-oxybutynin relative to the racemate: approximately equivalent to that of the racemate

## CCCCCCCCCCCC(=O)OCC(O)CO (centres unmarked) [glycerol monolaurate]
[4]; 12% lauryl lactate in EVA 40
  Wt % GML in solution (free GML): 4.2%
[4]; 20% lauryl lactate in EVA 40
  Wt % GML in solution (free GML): 7.0%
[4]; 27% lauryl lactate in EVA 40
  Wt % GML in solution (free GML): 9.5%
[4]; 30% lauryl lactate in EVA 40
  Wt % GML in solution (free GML): 10.5%
[4]; in an EVA 40 matrix
  solubility in EVA 40 matrix: practically insoluble
[4]; in lauryl lactate, solution stirred
  solubility of glycerol monolaurate in lauryl lactate: 350 mg/g of solution
